This note sets out measurements from patent US7776847B2, “Benzisothiazoles useful for treating or preventing HCV infection” (priority 2005, dated 2010).

The structures appear in SMILES notation. A value given as a limit tells only on which side of the number the result lay.

One test concerns HCV replicon. Briefly: HCV replicon luciferase reporter assay. It is filed as cell-based. On the set-up: scale not given here. The settings on record: Hepatitis C virus, Table 5; read-out: IC50. The essentials:
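Replicon-bearing dividing cells seeded at 5,000–7,500 cells/well, grown 24 h at 37° C/5% CO2, then exposed to test compound at various concentrations for a further 24–48 h. Replication/translation read by luciferase reporter; IC50 taken as compound amount giving 50% reduction in luciferase activity.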
(In general: In antiviral work, replicon cells carry a viral genome segment that copies itself.)
What is called IC50 is the point on the concentration scale where inhibition reaches its midpoint. Take `COc1ccc(-c2cccc(CNCCCNc3nsc4ccccc34)c2)cc1` [Compound 300, N^1-(benzo[d]isothiazol-3-yl)-N^3-((4′-methoxybiphenyl-3-yl)methyl)propane-1,3-diamine]: the IC50 was < 5 µM.
Consider `CCCOc1ccc(F)cc1-c1ccc(C(=O)NCCNc2nsc3ccccc23)cc1` [Compound 367, N-(2-(benzo[d]isothiazol-3-ylamino)ethyl)-5′-fluoro-2′-propoxybiphenyl-4-carboxamide], for which the IC50 is < 5 µM.
Take `c1ccc(-c2[nH]c3ccccc3c2CNCCCNc2nsc3ccccc23)cc1` [Compound 330, N^1-(benzo[d]isothiazol-3-yl)-N^3-((2-phenyl-1H-indol-3-yl)methyl)propane-1,3-diamine]: the IC50 was < 5 µM.
For `COc1ccc2[nH]c(C(=O)NCCNc3nsc4ccc(Cl)cc34)cc2c1` [Compound 432, N-(2-(5-chlorobenzo[d]isothiazol-3-ylamino)ethyl)-5-methoxy-1H-indole-2-carboxamide], the IC50 is < 5 µM.
As to `COc1ccc(-c2ccc(CNCCCNc3nsc4ccc(-c5cc(F)cc(F)c5)cc34)cc2)cc1` [Compound 411, N^1-(5-(3,5-difluorophenyl)benzo[d]isothiazol-3-yl)-N^3-((4′-methoxybiphenyl-4-yl)methyl)propane-1,3-diamine], the IC50 is < 5 µM.
Consider `O=S(=O)(NCCCNc1nsc2ccccc12)c1cccc(Br)c1` [Compound 268, N-(3-(benzo[d]isothiazol-3-ylamino)propyl)-3-bromobenzenesulfonamide], for which the IC50 is < 5 µM.
Same read-out and setting: the same measure for `O=C(NCCNc1nsc2ccccc12)c1cc(F)ccc1F` [Compound 350, N-(2-(benzo[d]isothiazol-3-ylamino)ethyl)-2,5-difluorobenzamide]: < 5 µM; for `CCCCc1ccc(NCCCNc2nsc3ccccc23)cc1` [Compound 295, N^1-(benzo[d]isothiazol-3-yl)-N^3-(4-butylphenyl)propane-1,3-diamine]: < 5 µM.
On to `CC1=NN(c2ccc(C(=O)NCCNc3nsc4ccccc34)cc2)C(=O)C1` [Compound 441, N-(2-(benzo[d]isothiazol-3-ylamino)ethyl)-4-(3-methyl-5-oxo-4,5-dihydropyrazol-1-yl)benzamide], for which the IC50 was > 5 µM.
As to `COc1cccc(-c2cccc(C(=O)NCCCNc3nsc4ccccc34)c2)c1OC` [Compound 369, N-(3-(benzo[d]isothiazol-3-ylamino)propyl)-5′,6′-dimethoxybiphenyl-3-carboxamide], the IC50 was < 5 µM.
`COC(=O)c1cnc(NCCCNc2nsc3ccccc23)nc1C(F)(F)F` [Entry 225, methyl 2-(3-(benzo[d]isothiazol-3-ylamino)propylamino)-4-(trifluoromethyl)pyrimidine-5-carboxylate]: the IC50 was < 5 µM.
For `COc1ccc(-c2ccc(CN(CCCNC3=NS(=O)(=O)c4ccccc43)S(=O)(=O)c3cn(C)c(C)n3)cc2)cc1` [Compound 340, N-{3-[(1,1-dioxido-1,2-benzisothiazol-3-yl)amino]propyl}-N-[(4′-methoxybiphenyl-4-yl)methyl]-1,2-dimethyl-1H-imidazole-4-sulfonamide], the IC50 was > 5 µM.
As for `Clc1cccc(NCCCNc2nsc3ccccc23)n1` [Entry 230, N^1-(benzo[d]isothiazol-3-yl)-N^3-(6-chloropyridin-2-yl)propane-1,3-diamine], the IC50 was < 5 µM.
As to `COC(=O)c1ccc(-c2ccc(S(=O)(=O)NCCCNc3nsc4ccccc34)cc2)cc1` [Compound 334, methyl 4′-(N-(3-(benzo[d]isothiazol-3-ylamino)propyl)sulfamoyl)biphenyl-4-carboxylate], the IC50 is < 5 µM.
On the same count and under the same terms, the same measure for `O=C(O)c1ccc(C(=O)NCCNc2nsc3ccccc23)nc1` [Entry 78, 6-(2-(Benzo[d]isothiazol-3-ylamino)ethylcarbamoyl)nicotinic Acid]: > 5 µM.
As to `COC(=O)c1ccc(C(=O)NCCNc2nsc3ccccc23)nc1` [Entry 77, Methyl 6-(2-(Benzo[d]isothiazol-3-ylamino)ethylcarbamoyl)nicotinate], the IC50 is > 5 µM.
As to `O=C(NCCNc1nsc2ccccc12)c1ccc(C(F)(F)F)cc1C(F)(F)F` [Compound 356, N-(2-(benzo[d]isothiazol-3-ylamino)ethyl)-2,4-bis(trifluoromethyl)benzamide], the IC50 is < 5 µM.
As for `COC(=O)c1ccc(S(=O)(=O)NCCCNc2nsc3ccccc23)o1` [Compound 244, methyl 5-(N-(3-(benzo[d]isothiazol-3-ylamino)propyl)sulfamoyl)furan-2-carboxylate], the IC50 is < 5 µM.
In the case of `CN(CCCNc1nsc2ccccc12)S(=O)(=O)c1ccccc1C(F)(F)F` [Entry 240, N-(3-(benzo[d]isothiazol-3-ylamino)propyl)-N-methyl-2-(trifluoromethyl)benzenesulfonamide], the IC50 was < 5 µM.
Turning to `COc1ccc(NS(=O)(=O)c2ccc(CNCCCNc3nsc4ccccc34)cc2)cc1` [Compound 258, 4-((3-(benzo[d]isothiazol-3-ylamino)propylamino)methyl)-N-(4-methoxyphenyl)benzenesulfonamide], the IC50 was < 5 µM.
Regarding `N#Cc1ccnc(NCCCNc2nsc3ccccc23)c1` [Entry 229, 2-(3-(benzo[d]isothiazol-3-ylamino)propylamino)pyridine-4-carbonitrile], the IC50 is < 5 µM.
For the compound `COc1ccc(C(=O)NCCCNc2nsc3ccccc23)cc1OC1CCCC1` [Compound 286, N-(3-(benzo[d]isothiazol-3-ylamino)propyl)-3-(cyclopentyloxy)-4-methoxybenzamide], the IC50 is < 5 µM.
As to `Cc1ccnc(NCCCNc2nsc3ccccc23)c1` [Entry 227, N-(3-(4-methylpyridin-2-ylamino)propyl)benzo[d]isothiazol-3-amine], the IC50 was < 5 µM.
Regarding `CCCCc1ccc(C(=O)NCCNc2nsc3ccccc23)nc1` [Compound 279, N-(2-(benzo[d]isothiazol-3-ylamino)ethyl)-5-butylpicolinamide], the IC50 was < 5 µM.
On to `N[C@H](C(=O)NCCNc1nsc2ccccc12)c1ccccc1` [Entry 74, (S)-2-Amino-N-(2-(benzo[d]isothiazol-3-ylamino)ethyl)-2-phenylacetamide], for which the IC50 is > 5 µM.
Take `O=S(=O)(NCCCNc1nsc2ccccc12)c1c(Cl)cc(Br)cc1Cl` [Compound 267, N-(3-(benzo[d]isothiazol-3-ylamino)propyl)-4-bromo-2,6-dichlorobenzenesulfonamide]: the IC50 was < 5 µM.
As to `Cc1ccc(OC(C)C)c(-c2ccc(NC(=O)NCCCNc3nsc4ccccc34)cc2)c1` [Compound 392, 1-(3-(benzo[d]isothiazol-3-ylamino)propyl)-3-(2′-isopropoxy-5′-methylbiphenyl-4-yl)urea], the IC50 was < 5 µM.
Regarding `c1ccc(COc2cccc(CNCCCNc3nsc4ccccc34)c2)cc1` [Compound 328, N^1-(benzo[d]isothiazol-3-yl)-N^3-(3-(benzyloxy)benzyl)propane-1,3-diamine], the IC50 was < 5 µM.
On to `O=C(NCCNc1nsc2ccccc12)C1CCCNC1` (stereo not shown) [Entry 73, N-(2-(Benzo[d]isothiazol-3-ylamino)ethyl)piperidine-3-carboxamide], for which the IC50 was > 5 µM.
In the case of `Cc1nc(S(=O)(=O)NCCCNc2nsc3ccccc23)cn1C` [Compound 248, N-(3-(benzo[d]isothiazol-3-ylamino)propyl)-1,2-dimethyl-1H-imidazole-4-sulfonamide], the IC50 was < 5 µM.
Turning to `O=S(=O)(NCCCNc1nsc2ccccc12)c1ccc(-c2ccc(OC(F)(F)F)cc2)cc1` [Compound 333, N-(3-(benzo[d]isothiazol-3-ylamino)propyl)-4′-(trifluoromethoxy)biphenyl-4-sulfonamide], the IC50 is < 5 µM.
Still for that read-out and setting: the same measure for `CCCCc1ccc(C(=O)NC(CNc2nsc3ccccc23)C(=O)O)cc1` (stereo not shown) [Compound 280, 3-(benzo[d]isothiazol-3-ylamino)-2-(4-butylbenzamido)propanoic acid]: > 5 µM; for `O=C(N[C@@H](C(=O)NCCNc1nsc2ccccc12)c1ccccc1)c1ccc(Cl)cc1` [Compound 348, (R)-N-(2-(2-(benzo[d]isothiazol-3-ylamino)ethylamino)-2-oxo-1-phenylethyl)-4-chlorobenzamide]: < 5 µM.
For the compound `COc1ccc(COc2ccc(C(=O)NCCCNc3nsc4ccccc34)cc2)cc1OC` [Entry 237, N-(3-(benzo[d]isothiazol-3-ylamino)propyl)-4-(3,4-dimethoxybenzyloxy)benzamide], the IC50 was < 5 µM.
Consider `Brc1ccc(CNCCCNc2nsc3ccccc23)cc1` [Compound 287, N^1-(benzo[d]isothiazol-3-yl)-N^3-(4-bromobenzyl)propane-1,3-diamine], for which the IC50 is < 5 µM.
Turning to `COc1ccc(-c2ccc(CN(CCCNc3nsc4ccccc34)C(=O)CC3CCCN3)cc2)cc1` (stereo not shown) [Compound 320, N-(3-(benzo[d]isothiazol-3-ylamino)propyl)-N-((4′-methoxybiphenyl-4-yl)methyl)-2-(pyrrolidin-2-yl)acetamide], the IC50 was < 5 µM.
For `O=C(NCCNc1nsc2ccccc12)c1ccccn1` [Entry 25, N-(2-(Benzo[d]isothiazol-3-ylamino)ethyl)picolinamide], the IC50 is < 5 µM.
For `COc1cccc(NCCCNc2nsc3ccccc23)n1` [Compound 283, N^1-(benzo[d]isothiazol-3-yl)-N^3-(6-methoxypyridin-2-yl)propane-1,3-diamine], the IC50 is < 5 µM.

Still in this test, the particulars now being: Table 5; the head prints only IC50; b387 says Tables 5 and 6 hold Replicon reporter and Western blot results.
Turning to `c1ccc(CNCCNc2nsc3ccccc23)nc1` [Compound 272, N^1-(benzo[d]isothiazol-3-yl)-N^2-(pyridin-2-ylmethyl)ethane-1,2-diamine], the IC50 result is “A, B”.
In the case of `O=S(=O)(NCCNc1nsc2ccccc12)c1ccc(Cl)cc1` [Compound 271, N-(2-(benzo[d]isothiazol-3-ylamino)ethyl)-4-chlorobenzenesulfonamide], the IC50 entry was “A, B”.
